Key:
[1] = system: MET(Y1235D); test: KINOMEscan; format: binding; settings: 1000 nM
[2] = system: ERBB3; test: KINOMEscan; format: binding; settings: 1000 nM
[3] = system: WNK1; test: KINOMEscan; format: binding; settings: 1000 nM
[4] = system: MAP3K4; test: KINOMEscan; format: binding; settings: 1000 nM
[5] = system: MUSK; test: KINOMEscan; format: binding; settings: 1000 nM
[6] = system: FGFR3; test: KINOMEscan; format: binding; settings: 1000 nM
[7] = system: RIPK2; test: KINOMEscan; format: binding; settings: 1000 nM
[8] = system: KIT(V559D,T670I); test: KINOMEscan; format: binding; settings: 1000 nM
[9] = system: MST4; test: KINOMEscan; format: binding; settings: 1000 nM
[10] = system: VRK2; test: KINOMEscan; format: binding; settings: 1000 nM
[11] = system: DMPK; test: KINOMEscan; format: binding; settings: 1000 nM
[12] = system: CDC2L5; test: KINOMEscan; format: binding; settings: 1000 nM
[13] = system: RIOK2; test: KINOMEscan; format: binding; settings: 1000 nM
[14] = system: PKAC-alpha; test: KINOMEscan; format: binding; settings: 1000 nM
[15] = system: EPHB3; test: KINOMEscan; format: binding; settings: 1000 nM
[16] = system: MTOR; test: KINOMEscan; format: binding; settings: 1000 nM
[17] = system: DRAK1; test: KINOMEscan; format: binding; settings: 1000 nM
[18] = system: NEK5; test: KINOMEscan; format: binding; settings: 1000 nM
[19] = system: CSNK1A1L; test: KINOMEscan; format: binding; settings: 1000 nM
[20] = system: ACVR1; test: KINOMEscan; format: binding; settings: 1000 nM
[21] = system: NK cells co-seeded with SK-OV-3 cells; test: IFN-γ secretion ELISA, NK cells co-cultured with SK-OV-3 cells in presence of Herceptin; format: cell-based, human; settings: SK-OV-3 co-culture; 0.1 to 3 μM
Experimental: Peripheral blood mononuclear cells (PBMC) were separated from the blood of healthy donors by Ficoll density gradient centrifugation (Histopaque-1077, Sigma-Aldrich). Cells were enriched using a MACS® human NK cell negative-selection isolation kit (Miltenyi Biotec, Germany) according to the manufacturer’s instructions. Purified NK cells were cultured with 1000U/ml IL2 for 48h. […] The concentrations of interferon (IFN)-γ in cell culture supernatants obtained from three independent experiments were detected using commercial ELISA kits (absin, #abs510007), according to the manufacturer’s instructions. The human IFN-γ kit sensitivity was 7.8 pg/ml.

[22] = system: TNNI3K; test: KINOMEscan; format: binding; settings: 1000 nM
[23] = system: KIT; test: KINOMEscan; format: binding; settings: 1000 nM
[24] = system: IGF1R; test: KINOMEscan; format: binding; settings: 1000 nM
[25] = system: RSK3(Kin.Dom.1-N-terminal); test: KINOMEscan; format: binding; settings: 1000 nM
[26] = system: ROCK2; test: KINOMEscan; format: binding; settings: 1000 nM
[27] = system: ABL1(F317L)-nonphosphorylated; test: KINOMEscan; format: binding; settings: 1000 nM
[28] = system: p38-alpha; test: KINOMEscan; format: binding; settings: 1000 nM
[29] = system: CIT; test: KINOMEscan; format: binding; settings: 1000 nM
[30] = system: PKN2; test: KINOMEscan; format: binding; settings: 1000 nM
[31] = system: RIOK1; test: KINOMEscan; format: binding; settings: 1000 nM
[32] = system: PRKX; test: KINOMEscan; format: binding; settings: 1000 nM
[33] = system: panel of B-cell lymphoma cell lines; test: anti-proliferative CellTiter-Glo assay, whole panel; format: cell-based; settings: all cell lines of the B-cell lymphoma panel
Experimental: Cell viability was measured using the CellTiter–Glo assay (Promega, USA) according to the manufacturer’s instructions, and […] was measured in a Bio-red Microplate reader (Bio-Red, USA).

[34] = system: DMPK2; test: KINOMEscan; format: binding; settings: 1000 nM
[35] = system: TTK; test: KINOMEscan; format: binding; settings: 1000 nM
[36] = system: FGFR3(G697C); test: KINOMEscan; format: binding; settings: 1000 nM
[37] = system: ACVRL1; test: KINOMEscan; format: binding; settings: 1000 nM
[38] = system: YSK1; test: KINOMEscan; format: binding; settings: 1000 nM
[39] = system: STK35; test: KINOMEscan; format: binding; settings: 1000 nM
[40] = system: MST3; test: KINOMEscan; format: binding; settings: 1000 nM
[41] = system: CDK11; test: KINOMEscan; format: binding; settings: 1000 nM
[42] = system: BRAF(V600E); test: KINOMEscan; format: binding; settings: 1000 nM
[43] = system: HASPIN; test: KINOMEscan; format: binding; settings: 1000 nM
[44] = system: DRAK2; test: KINOMEscan; format: binding; settings: 1000 nM
[45] = system: DCAMKL3; test: KINOMEscan; format: binding; settings: 1000 nM
[46] = system: TBK1; test: KINOMEscan; format: binding; settings: 1000 nM
[47] = system: TRKC; test: KINOMEscan; format: binding; settings: 1000 nM
[48] = system: LYN; test: KINOMEscan; format: binding; settings: 1000 nM
[49] = system: TAOK2; test: KINOMEscan; format: binding; settings: 1000 nM
[50] = system: CASK; test: KINOMEscan; format: binding; settings: 1000 nM
[51] = system: ICK; test: KINOMEscan; format: binding; settings: 1000 nM
[52] = system: PHKG1; test: KINOMEscan; format: binding; settings: 1000 nM
[53] = system: MAP4K5; test: KINOMEscan; format: binding; settings: 1000 nM
[54] = system: TYRO3; test: KINOMEscan; format: binding; settings: 1000 nM
[55] = system: NEK1; test: KINOMEscan; format: binding; settings: 1000 nM
[56] = system: MST1R; test: KINOMEscan; format: binding; settings: 1000 nM
[57] = system: ABL1(Y253F)-phosphorylated; test: KINOMEscan; format: binding; settings: 1000 nM
[58] = system: KIT(L576P); test: KINOMEscan; format: binding; settings: 1000 nM

C=CC(=O)Nc1cc(Nc2cc(-c3cccc(NC(=O)c4cc5c(s4)CCCC5)c3C)cn(C)c2=O)ccc1N1CCN(CC)CC1 [CHMFL-BTK-85]
Percent Control [1]: 97%
Percent Control [2]: 95%
Percent Control [3]: 100%
Percent Control [4]: 92%
Percent Control [5]: 91%
Percent Control [6]: 82%
Percent Control [7]: 94%
Percent Control [8]: 100%
Percent Control [9]: 100%
Percent Control [10]: 94%
Percent Control [11]: 92%
Percent Control [12]: 100%
Percent Control [13]: 100%
Percent Control [14]: 100%
Percent Control [15]: 100%
Percent Control [16]: 100%
Percent Control [17]: 97%
Percent Control [18]: 100%
Percent Control [19]: 100%
Percent Control [20]: 99%
inhibition of Herceptin-induced IFN-γ secretion in NK cells [21]: no apparent inhibition
Percent Control [22]: 93%
Percent Control [23]: 92%
Percent Control [24]: 76%
Percent Control [25]: 85%
Percent Control [26]: 100%
Percent Control [27]: 100%
Percent Control [28]: 93%
Percent Control [29]: 95%
Percent Control [30]: 81%
Percent Control [31]: 100%
Percent Control [32]: 95%
GI50s [33]: < 2 µM
Percent Control [34]: 100%
Percent Control [35]: 54%
Percent Control [36]: 87%
Percent Control [37]: 100%
Percent Control [38]: 80%
Percent Control [39]: 100%
Percent Control [40]: 66%
Percent Control [41]: 82%
Percent Control [42]: 100%
Percent Control [43]: 100%
Percent Control [44]: 100%
Percent Control [45]: 100%
Percent Control [46]: 72%
Percent Control [47]: 100%
Percent Control [48]: 100%
Percent Control [49]: 96%
Percent Control [50]: 100%
Percent Control [51]: 100%
Percent Control [52]: 94%
Percent Control [53]: 100%
Percent Control [54]: 97%
Percent Control [55]: 95%
Percent Control [56]: 98%
Percent Control [57]: 83%
Percent Control [58]: 79%

From PMC7490411 (Signal Transduction and Targeted Therapy, 2020)
